biological target: T1, human DGAT1 (Homo sapiens, UniProt O75907); experiment: Human Enzyme Assay (DGAT1 inhibition, 14C oleoyl coenzyme A, insect cell membranes); type: biochemical; details: human DGAT1 expressed in sf9 insect cell membranes; usually a mean of 2 measurements
T1 construct: made in house; host or cells: Sf9 insect cells (baculovirus); membrane fraction
T1 sequence (O75907 1-488): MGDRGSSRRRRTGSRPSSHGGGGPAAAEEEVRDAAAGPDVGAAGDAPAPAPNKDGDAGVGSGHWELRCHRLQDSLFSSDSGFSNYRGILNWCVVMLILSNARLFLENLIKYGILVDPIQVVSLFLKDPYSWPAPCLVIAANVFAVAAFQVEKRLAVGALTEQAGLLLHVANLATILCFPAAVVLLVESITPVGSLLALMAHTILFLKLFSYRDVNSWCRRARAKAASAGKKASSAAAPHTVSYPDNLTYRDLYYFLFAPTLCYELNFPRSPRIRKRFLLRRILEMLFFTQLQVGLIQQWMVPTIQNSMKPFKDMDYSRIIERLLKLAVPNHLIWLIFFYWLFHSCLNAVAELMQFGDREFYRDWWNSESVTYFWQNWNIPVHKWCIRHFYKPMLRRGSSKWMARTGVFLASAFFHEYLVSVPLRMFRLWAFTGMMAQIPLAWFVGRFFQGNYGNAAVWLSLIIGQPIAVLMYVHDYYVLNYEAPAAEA
Procedure: See, for example, International Application WO 2005/044250.
The in vitro assay to identify DGAT1 inhibitors uses human DGAT1 expressed in insect cell membranes as the enzyme source (Proc. Natl. Acad. Sci. 1998, 95, 13018-13023). Briefly, sf9 cells were infected with recombinant baculovirus containing human DGAT1 coding sequences and harvested after 48 h. Cells were lysed by sonication and membranes isolated by centrifuging at 28000 rpm for 1 h at 4° C. on a 41% sucrose gradient. The membrane fraction at the interphase was collected, washed, and stored in liquid nitrogen.
DGAT1 activity was assayed by a modification of the method described by Coleman (Methods in Enzymology 1992, 209, 98-102). Compound at 0.0000256 μM-33 μM (final conc.) (typically 10 μM) was incubated with 4 μg/ml (final conc) membrane protein, 5 mM MgCl2, and 100 μM 1,2 dioleoyl-sn-glycerol (dissolved in acetone with a final assay conc. of acetone of 10%) in a total assay volume of 200 μl in a 96 well plate. The reaction was started by adding ^14C oleoyl coenzyme A (30 μM final concentration) and incubated at room temperature for 30 minutes. The reaction was stopped by adding 200 μl 2-propanol:heptane 7:1. Radioactive triolein product was separated into the organic phase by adding 300 μl heptane and 100 μl 0.1 M carbonate buffer pH 9.5. DGAT1 activity was quantified by counting aliquots of the upper heptane layer by liquid scintillography.
Stated figures are usually a mean of a number of measurements (usually 2 measurements) according to standard practice.

IC50	Structure (SMILES)
0.016 µM	O=C(Nc1ccc([C@H]2CC[C@H](C(=O)O)CC2)cc1F)c1nnc(Nc2ccc(C(F)(F)F)cc2)o1 [Example 1, (1r,4r)-4-(3-Fluoro-4-(5-(4-(trifluoromethyl)phenylamino)-1,3,4-oxadiazole-2-carboxamido)phenyl)cyclohexanecarboxylic acid]
0.028 µM	O=C(Nc1ccc([C@H]2CC[C@H](C(=O)O)CC2)cc1F)c1nnc(Nc2ccc(OC(F)F)cc2)o1 [Example 2]
0.011 µM	O=C(Nc1ccc([C@H]2CC[C@H](C(=O)O)CC2)cc1F)c1nnc(Nc2ccc(OC(F)(F)F)cc2)o1 [Example 3, (1r,4r)-4-(3-Fluoro-4-(5-(4-(trifluoromethoxyl)phenylamino)-1,3,4-oxadiazole-2-carboxamido)phenyl)cyclohexanecarboxylic acid]
0.012 µM	O=C(Nc1ccc([C@H]2CC[C@H](C(=O)O)CC2)cc1F)c1nnc(Nc2cccc(Cl)c2)o1 [Example 4, (1r,4r)-4-(4-(5-(3-Chlorophenylamino)-1,3,4-oxadiazole-2-carboxamido)-3-fluorophenyl)cyclohexanecarboxylic acid]
0.0055 µM	O=C(Nc1ccc([C@H]2CC[C@H](C(=O)O)CC2)cc1F)c1nnc(Nc2ccc(F)c(F)c2)o1 [Example 5, (1r,4r)-4-(4-(5-(3,4-Difluorophenylamino)-1,3,4-oxadiazole-2-carboxamido)-3-fluorophenyl)cyclohexanecarboxylic acid]
0.0037 µM	O=C(Nc1ccc([C@H]2CC[C@H](C(=O)O)CC2)cc1F)c1nnc(Nc2cc(F)c(F)cc2F)o1 [Example 6, (1r,4r)-4-(3-Fluoro-4-(5-(2,4,5-trifluorophenylamino)-1,3,4-oxadiazole-2-carboxamido)phenyl)cyclohexanecarboxylic acid]
0.0092 µM	O=C(Nc1ccc([C@H]2CC[C@@H](C(=O)O)CC2)cc1F)c1nnc(Nc2ccc(F)c(F)c2)o1 [Example 7, (1s,4s)-4-(4-(5-(3,4-Difluorophenylamino)-1,3,4-oxadiazole-2-carboxamido)-3-fluorophenyl)cyclohexanecarboxylic acid]
0.0047 µM	O=C(Nc1ccc([C@H]2CC[C@@H](C(=O)O)CC2)cc1F)c1nnc(Nc2cc(F)c(F)cc2F)o1 [Example 8, (1s,4s)-4-(3-Fluoro-4-(5-(2,4,5-trifluorophenylamino)-1,3,4-oxadiazole-2-carboxamido)phenyl)cyclohexanecarboxylic acid]
